From US20250144187A1, “COMBINATION OF HYDROLASES AND ANTI-MICROORGANISM DRUGS AND USES THEREOF” (CENTRE FOR EYE AND VISION RESEARCH LIMITED, priority 2023, published 2025)

Tests used:
MRSA [1] = test: HADA-based synthesis of nascent cell wall; parameters: species or system Staphylococcus aureus; settings: cefdinir alone or combination with lysozyme, 2 hours
Experimental: 8) Synthesis and digestion of cell wait. According to the reported method [Kuru E et al., ACS Chem Biol 14, 2745-2756 (2019)], over-night cultured MRSA was inoculated into LB medium and cultured at 37° C. with shaking at 250 rpm until when its OD600 reached 0.6. Then, these mid-log-phase MRSA was treated with cefdinir (0.5 μg/ml), lysozyme (0.5 mg/ml) alone or their combination. Those treated with mezlocillin (1.0 μg/ml) and without any treatment served as antibiotic-control and untreated group, respectively. Meanwhile, MRSA suspension in control group was further divided into two groups. i.e., control group and no drug group, Next, 10 μM HCC-Amino-D-alanine (HADA) was added into all samples except those in no drug group, in which HADA was replaced by PBS. After 2- or 4-hour incubation, all bacteria were collected by centrifugation at 3220 g for 10 minutes and then washed by cold PBS for 3 times to remove redundant HADA.

MRSA [2] = test: ATP, NADH and pyruvate levels, cefdinir/lysozyme; type: cell-based, Staphylococcus aureus; settings: 1 hour
Experimental: 12) ATP, NADH and pyruvate levels. According to the described method [Liu Y et al., Adv Sci 7, 1902227 (2020)], mid-log-phase MRSA with an OD600 of 0.4 to 0.6 was treated with lysozyme, cefdinir or their combination at different concentrations. Those without any treatment served as control group. After 1 hour incubation at 37° C. bacteria with similar load (according to OD600, 1 ml bacteria were collected if the OD600 was 1) were collected, washed by cold PBS for 3 times. […] Here, 20 μl of each supernatant were added each well of white 96-well plate, in which each well had been pre-reactivated by 100 μl of ATP test solution (Beyotime. Co. Ltd, China), followed by luminometer measurement. To analyze the NAD^+/NADH ratio [Xue C et al., Front Pharmacol 12, 6000296 (2021)], half of lysis supernatants were frozen at −20° C. immediately and the rest half were firstly heated at 60° C. for 30 minutes in PCR machine to decompose NAD^+ if had, Next, these heated supernatants were further centrifuged at 18,000 g at 4° C. for 20 minutes to collect their supernatants. […] After 30 minutes incubation in the prevention of light, orange formazan was observed and then the absorbance at 450 nm was recorded. […] By recording the absorbance at 520 nm, the pyruvate level in each sample was figured out according to the standard formula. […]

MRSA in ARPE-19 cells = test: Cell-based infection model, cefdinir/lysozyme; settings: 0.25 μg/ml cefdinir combined with 0.5 mg/ml lysozyme
MRSA-infected skin wound = test: Rat skin infection model, cefdinir/lysozyme; type: in vivo, Sprague Dawley (SD) rats; settings: combination therapy vs control or mono-therapy groups
Experimental: 16) Rat skin Infection model. […] Others were infected by about 5×10^11 CFU of mid-log phase MRSA from our own collection. Briefly, all rats were firstly pre-depilated by using 10% Na2S to get an uncovered back area of 4 cm×4 cm prior to 24 hours for the anesthetization on rats. Then, the skin of anesthetized rat was removed until fascial region under sterile condition, followed by bacterial infection by spraying 5×10^11 CFU of MRSA suspension on wound (3 cm×3 cm). To collect these bacterial suspensions, mid-log phase MRSA would be collected by centrifugation at 4500 g for 15 minutes washed with PBS for 3 limes and re-suspended in cold PBS to get bacterial suspension with an initial density of about 4.0×10^11 CFU/ml according to pre-experiment. Next, 1.25 ml of bacterial suspensions was inoculated into wound, Normal saline was used to replace bacterial suspension in uninfected group. After 1 hour infection, wound of infected rat was covered by sterile medical gauze. All sterile medical gauzes were 0.2 g/cm^2, which were further covered by two layers of sterile gauzes and fixed by sterile tapes. After that, rats were monitored until they were fully awake, followed by return to their cages. After 24 hours infection, these sterile medical gauzes were replaced with new sterile medical gauzes. […] About 4-μm sections was analyzed by using the hematoxylin and eosin (H-E) staining. […]

MRSE [3] = test: Mutation frequency and prevention concentration analysis, tedizolid phosphate/lysozyme
MRSE [4] = test: Check board broth micro-dilution assay, tedizolid phosphate with lysozyme; type: cell-based, Staphylococcus epidermis; settings: tedizolid phosphate and lysozyme
Experimental: 2) Check board broth micro-dilution assays. According to standard two-fold dilution method [Sun. H et al., Nat. Commun. 11, 5263 (2020) tedizolid phosphate at different concentrations were added into fresh LB medium (or trypticase soy troth medium with 5% defibrinated horse blood) containing different concentrations of human lysozyme in 96-well plate. Then, 20 μl of 1.0×10^7 CFU/ml logarithmic cultures of MRSA or MRSE were added into each well of the plate and co-incubated overnight. Drug-free LB medium in the absence or presence of bacteria served as background control and growth control group, respectively. […] Thus, there would be a series of FICI values. In most of cases, the lowest one among these values was listed to reflect the best achieving degree of combination therapy. In terms of the lowest FICI, FICI≤0.5, 0.5<FICI<1 or FICI≥1, would indicate the combination has synergy, part synergy or non-synergy effects, respectively.

SMILES | reduction in HADA signal intensity from nascent cell wall (MRSA [1]) [%] | increasing ATP level (MRSA [2]; cefdinir (0.5 μg/ml) + lysozyme (0.5 mg/ml)) [fold] | increase in the ratio of NAD+/NADH (MRSA [2]; cefdinir treatment) [fold] | drop of bacterial load in infected ARPE-19 cells (MRSA in ARPE-19 cells) | bacterial load in infected ARPE-19 cells (MRSA in ARPE-19 cells; MOI 50) | decrease in the level of IL-6 in wounds (MRSA-infected skin wound) [%] | decrease in the level of ROS in wounds (MRSA-infected skin wound) | mutation frequencies (MRSE [3]; combination with lysozyme) | prevention concentrations of tedizolid phosphate (MRSE [3]; combination with lysozyme) [µg/mL] | mutation frequencies (MRSE [3]; without combination therapy) | prevention concentrations of tedizolid phosphate (MRSE [3]; without lysozyme) [µg/mL] | fractional inhibitory concentration index (FICI) (MRSE [4])
C=CC1=C(C(=O)O)N2C(=O)[C@@H](NC(=O)/C(=N\O)c3csc(N)n3)[C@H]2SC1 [cefdinir, Cefdinir] | ~40 | 1.5 | 1.3 | 10^2 fold | 10^3 CFU/ml | > 16 | more than 36% | – | – | – | – | –
Cn1nnc(-c2ccc(-c3ccc(N4C[C@H](COP(=O)(O)O)OC4=O)cc3F)cn2)n1 [tedizolid phosphate, Tedizolid Phosphate] | – | – | – | – | – | – | – | 2×10^−9 | ≤ 1 | ≥ 5×10^−7 | > 50 | < 0.023
